Assay results reported in patent US10227324B2 (Shanghai Haiyan Pharmaceutical Technology Co., Ltd., priority 2014, dated 2019).

system: NIH3T3 cells; assay: Cytotoxicity by MTT assay, NIH3T3; format: cell-based; details: Mus musculus, NIH3T3, 72 h, cytotoxicity class, read-out: NIH3T3 cell (IC50/nM)

Row | SMILES | IC50 [nM]
1 | CS(=O)(=O)C1(c2cc(-c3cnc(N)cc3C(F)(F)F)nc(N3CCOCC3)n2)CCCC1 [Compound S-10] | 1000 to 3000
2 | CC(C)S(=O)(=O)C1(c2cc(-c3cnc(N)cc3C(F)(F)F)nc(N3CCOCC3)n2)CCC1 [Compound S-19] | 1000 to 3000
3 | Nc1cc(C(F)(F)F)c(-c2cc(C3(S(=O)(=O)c4ccccc4)CCC3)nc(N3CCOCC3)n2)cn1 [Compound S-20] | 1000 to 3000
